Measurements reported in patent US20240344029A1, “STEM CELL DIFFERENTIATION BY CONTROLLING NUCLEAR CURVATURE” (THE ROYAL INSTITUTION FOR THE ADVANCEMENT OF LEARNING / …, priority 2023, published 2024).

Legend:
Type in all cases: cell-based, Murine
MSCs [1] = assay: YAP localization in MSCs confined on fibronectin line patterns treated with modulators of nuclear import; conditions: for YAP Ratio with increasing Kmax XY: fibronectin line patterns 1.5-8 μm, Pitstop2 30 μM 1 hour; for nuclear YAP on thick (8 μm) and thin (1.5 μm) line patterns: microscopy, FIGS. 15B-15D
Procedure: Glass coverslips were adhesively micropatterned on 22*22 mm no. 1 with a UV-based patterning system (PRIMO, Alveole Lab, Paris, France). Glass coverslips were incubated with Poly-L-Lysine (PLL, Sigma) solution (5 mg/mL) prepared in 0.1 M HEPES buffer (pH 8.5) for 1 hour at room temperature, followed by rinsing with MiliQ™ water. Positively charged PLL electrostatically adsorbed onto the negatively charged surface of silicone substrates and allowed protein attachment after printing. The coverslips were then incubated with Polyethylene glycol valeric acid (PEG-SVA, Laysan Bio) prepared in 0.1 M HEPES buffer (pH 8.5) for 30 minutes at room temperature, followed by thorough rinsing with phosphate buffer saline (PBS) pH 7. PEG-SVA acts as an antifouling brush layer that repels protein attachment. The coverslips were then covered with the UV sensitive photo-initiator solution of PLPP (Alveole Lab, Paris, France) and placed on the stage of a microscope (Nikon Ti2 Eclipse) equipped with the UV-patterning system.
To generate the patterns, open-source graphics software programs were used, Inkscape and ImageJ, to generate binary 8-bit mask image files that were loaded into PRIMO's control software. The desired pattern was generated by a digital micromirror array in the PRIMO system and projected using a 375 nm UV laser with an intensity of 29 mW/mm^2 via 20×/0.45NA objective. The projected pattern results in localized photodegradation of the antifouling PEG-SVA brush, in the shape of the desired pattern. An exposure dose of 20 seconds was adequate to complete photodegradation of the PEG-SVA brush. Following UV exposure, the coverslips were washed with PBS and incubated them for 1 hr at room temperature with 40 μg/mL fibronectin (Sigma) in PBS to adsorb the protein to the exposed PLL surface. Excess protein was rinsed off with PBS 3 times prior to cell seeding.
(§1) To observe endogenous YAP localization, the MSCs were fixed with 4% paraformaldehyde for 15 min in room temperature and washed 3 times with PBS. The cells were permeabilized with 0.1% Triton X-100 diluted in PBS for 10 minutes. To avoid any nonspecific binding, cells were incubated with 1% bovine serum albumin (BSA) in PBS for 30 minutes at room temperature. To visualize YAP, cells were first incubated with 10 μg/ml Anti-YAP1 mouse monoclonal antibody (ab56701, Abcam™) diluted in 1% BSA in PBS overnight, followed by PBS wash and 1 hour incubation with 10 μg/ml Donkey Anti-Mouse IgG H&L (Alexa Fluor™ 647) secondary antibody (ab150107, Abcam™) diluted in 1% BSA in PBS. For nuclear characterization, nuclei were stained with 10 μg/ml Bisbenzimide Hoechst 33342 trihydrochloride (Sigma™) in PBS for 20 minutes, cells were washed with PBS.
To identify the mechanisms involved in YAP localization via nuclear curvature, MSCs were confined on fibronectin line patterns of decreasing thickness and then exposed to various drugs that manipulate active and passive nuclear import mechanisms. Finally, MSCs were fixed and stained with Anti-YAP1 antibody and Hoechst as explained above. To inhibit active nuclear import, MSCs were treated with 40 μM Importazole (cayman chemicals) for 1 hour, it inhibits importinβ/Ran GTP nuclear import pathway. For inhibiting both active and passive nuclear import, MSCs were treated with 30 μM Pitstop2 (abcam) for 1 hour, it disrupts nuclear pore complex structure and blocks nuclear pores. […]

MSCs [2] = assay: Cytochalasin D treatment: endogenous YAP localization and nuclear deformation in MSCs on fibronectin-coated glass coverslips; conditions: versus wildtype MSCs
Procedure: For YAP localization measurements MSCs were imaged in two channels one for iRFP YAP transfected or Alexa 647 conjugated secondary antibody-stained cells (Ex 647 nm laser) and other for Hoechst-stained nuclei (Ex 405 nm laser). The principal metric for YAP quantification was the ratio of fluorescence of iRFP YAP in the nucleus to iRFP YAP in the cytoplasm and is referred to as the YAP Ratio. Image segmentation was performed using a custom MATLAB code, that segments the nucleus from Hoechst and cytoplasm from YAP and measures the ratio of total iRFP YAP fluorescence inside the nucleus to total iRFP YAP fluorescence in the cytoplasm.
as §1
To study the role of nuclear deformation in YAP localization, XYZ stacks of Hoechst-stained nuclei of iRFP YAP transfected MSCs were captured using confocal microscope (Leica TCS SP8, 63× objective) with a closed pinhole 0.5 AU and thin Z step size of 0.3 μm. All the XYZ stacks were analyzed using a custom MATLAB code that measures nuclear volumes, surface area, height, major axis, minor axis, and curvature. In brief, the three-dimensional XYZ stacks were, preprocessed by background subtraction threshold, and binarization. The nuclear volumes, surface area, height, major axis, and minor axis were first measured in pixels using regionprops3™ in MATLAB, which were then converted to microns. Nuclear flatness, Nuclear Eccentricity and Nuclear Aspect Ratio were measured using the following equations: […]
For nuclear curvature analysis, XYZ stacks of Hoechst-stained nuclei were resliced into 2D image sections in XY, XZ and YZ directions. For each resliced 2D nuclear image, curvature was measured across the nuclear boundary, using a curvature function in MATLAB. […] This provided us with distribution of curvature values of the complete nucleus quantified from resliced nuclear images in all three dimensions of XY, XZ and YZ separately (FIGS. 9A-9L). […]

[3] = system: MSCs transfected with Nesprin 2G tension sensor; assay: Nesprin 2G FRET tension sensor, nuclear membrane tension in MSCs; conditions: before versus after actin depolymerization
Excerpt: To measure nuclear membrane tension, MSCs were co-transfected Nesprin tension sensor (pcdna nesprin TS, 68127, Addgene) and iRFP-YAP plasmid. Nesprin tension sensors are fluorescent resonance energy transfer-based tension biosensors for nesprin 2G, a structural protein at the LINC complex, which links actin cytoskeleton to the nucleus. For control experiments, MSCs were transfected with Nesprin headless control (pcdna nesprin HL, 68128, Addgene), which lacks the actin-binding domain and is localized on the nuclear membrane. […]
All the image processing and analysis was performed on open-source Image J software. […] Ratio images were calculated by dividing the unmixed venus channel by the unmixed teal channel. For each image, binary masks were manually created in ImageJ to exclude pixels outside of the nuclear membrane as determined by the mVenus channel. […] Local FRET intensity and local curvature were measured using Kappa Curvature Analysis plugin in Image J. In brief, the 2D FRET images were opened in Kappa Curvature Analysis plugin and using a selection tool, points were manually selected across the nuclear membrane and a closed curvature fit was performed. […]

[4] = Importazole 40 μM 1 hour, trans-1,2-Cyclohexanediol 258 mM 5 mins
[5] = 1.5 μM for 2 hours, fibronectin-coated glass coverslips

Structure (SMILES)	YAP Ratio with increasing Kmax XY (MSCs [1]; [4])	YAP Ratio compared with untreated MSCs (MSCs [1]; fibronectin line patterns, Importazole 40 μM 1 hour, trans-1,2-Cyclohexanediol 258 mM 5 mins)	nuclear YAP on thick (8 μm) and thin (1.5 μm) line patterns (MSCs [1])	YAP Ratio (nuclear to cytoplasmic YAP, endogenous, anti-YAP antibody) (MSCs [2]; [5])	nuclear volume (MSCs [2]; [5])	YAP Ratio (nuclear to cytoplasmic YAP, endogenous, anti-YAP antibody) (MSCs [2]; 1.5 μM for 2 hours, fibronectin-coated glass coverslips, listed as Cyto D)	maximum nuclear curvature (Kmax XZ) / nuclear curvature distribution (MSCs [2]; Hoechst-stained nuclei, XYZ stacks, listed as Cyto D)	FRET intensity (increase = decrease in nuclear membrane tension) [3]
CC(Nc1nc(N2CCCC2)nc2ccccc12)c1ccccc1 (stereo not shown) [importazole, Importazole]	small increase in YAP ratios with increasing Kmax XY	substantially less than untreated MSCs	low nuclear YAP on both thick (8 μm) and thin line patterns (1.5 μm)	–	–	–	–	–
C=C1[C@@H](C)[C@H]2[C@H](Cc3ccccc3)NC(=O)[C@]23[C@H](OC(C)=O)/C=C/[C@@](C)(O)C(=O)[C@@H](C)C/C=C/[C@H]3[C@@H]1O [Cytochalasin D]	–	–	–	low YAP ratio	high nuclear volumes	lower YAP Ratios	lower maximum curvature in XZ	increase in FRET intensity
O=C1NC(=NS(=O)(=O)c2cccc3ccccc23)S/C1=C\c1ccc(Br)cc1 [Pitstop2]	complete inhibition of curvature influenced YAP Ratio	–	low nuclear YAP on both thick (8 μm) and thin (1.5 μm) line patterns	–	–	–	–	–
